# Test results published in patent US20090186761A1, “Use of bio-derived surfactants for mitigating damage to plants from pests” (Cleareso, LLC, priority 2008, published 2009).
# Legend:
# [1] = system: root weevil, Diaprepes abbreviatus; experiment: Root weevil larvae held 30 minutes in concentration series of compounds; format: in vivo; conditions: for Mortality of larvae: 30 minutes immersion, five larvae; for toxicity to larvae as judged: 0.1 to 5.0%, judged at 24 hours from black residue and activity
# Protocol: The criterion for toxicity with these larvae is the lack of nipping behavior and its consequent black residue from blood loss and the lack of spontaneous movement.
# Concentration Series. With the results from the time series above, larvae were held in different concentrations of STMB for 30 minutes. After 30 minutes, solutions were poured off and the trays wiped dry. Assessments were made at 24 or 48 hours with a few assessments at 72 hours dependent on effects. Treatments were: water or carbonated water as controls, and 0.1, 0.5, 1.0, 2.0, 3.0, 4.0 and 5.0% concentrations in either distilled water or carbonated water. Five larvae were used for each control and treatment. Pupae were not used in this assessment.
# The use of carbonated water appeared not to increase the efficacy of this treatment. After 48 hours, there appeared to be no difference between 5% STMB in water and 5% STMB in carbonated water. […] In general, 48 hours should be enough for this assessment. Lack of toxicity or high toxicity should show in the first 24 hours.
# M. javanica = conditions: tomato root galling; cited from earlier work
# [2] = Solubility of the test preparations in water (observations); format: physicochemical
# Meloidognye hapla = conditions: cited from earlier work; for toxicity to nematodes: in vitro; for kill of second stage juveniles: 50 ppm, 24 hours
molecule,measurement,setting,value
"COC(=O)CCCC(=O)OC [1119-40-0, pentanedioic acid, dimethyl ester]",Mortality of larvae,"[1]; 0.1%, 48 hours",3
same,Mortality of larvae,"[1]; 0.1%, 72 hours",3
same,Mortality of larvae,"[1]; 1.0%, 48 hours",1
same,Mortality of larvae,"[1]; 1.0%, 72 hours",2
same,Mortality of larvae,"[1]; 3.0%, 48 hours",0
same,Mortality of larvae,"[1]; 3.0%, 72 hours",0
same,Mortality of larvae,"[1]; 5.0%, 48 hours",1
same,Mortality of larvae,"[1]; 5.0%, 72 hours",2
same,survival of larvae after 30 minutes,[1]; at end of 30 minutes immersion,All larvae were alive
CCCCCCCCC(=O)OC [Methyl perlargonate],concentration producing reduced galling of plants,M. javanica,0.8 microliters/liter
"COC(=O)CCCCC(=O)OC [627-93-0, Dimethyl hexanedioate]",Mortality of larvae,"[1]; 0.1%, 24 hours",2
same,toxicity to larvae as judged,[1],non-toxic
same,Mortality of larvae,"[1]; 1.0%, 24 hours",1
same,Mortality of larvae,"[1]; 3.0%, 24 hours",2
same,Mortality of larvae,"[1]; 5.0%, 24 hours",3
same,solubility of preparation,[2]; 0.1% in water,soluble
same,solubility of preparation,[2]; 1.0% in water,not completely soluble
same,solubility of preparation,[2]; 3.0% in water,not completely soluble
same,solubility of preparation,[2]; 5.0% in water,not completely soluble
CCCCCCCC/C=C\CCCCCCCC(=O)O [Oleic acid],toxicity to nematodes,Meloidognye hapla,relatively nontoxic
Polyoxyethylene 10 tridecylether [24938-91-8],Mortality of larvae,"[1]; 0.1%, 24 hours",0
same,Mortality of larvae,"[1]; 0.1%, 48 hours",0
same,Mortality of larvae,"[1]; 0.1%, 72 hours",0
same,Mortality of larvae,"[1]; 1.0%, 24 hours",2
same,Mortality of larvae,"[1]; 1.0%, 48 hours",2
same,Mortality of larvae,"[1]; 1.0%, 72 hours",2
same,Mortality of larvae,"[1]; 3.0%, 24 hours",0
same,Mortality of larvae,"[1]; 3.0%, 48 hours",0
same,Mortality of larvae,"[1]; 3.0%, 72 hours",0
same,Mortality of larvae,"[1]; 5.0%, 24 hours",0
same,Mortality of larvae,"[1]; 5.0%, 48 hours",3
same,Mortality of larvae,"[1]; 5.0%, 72 hours",3
CCCCCCCCCCC(=O)O [undecanoic acid],kill of second stage juveniles,Meloidognye hapla,killed all
CCCCCCCC/C=C\CCCCCCCC(=O)[O-].[K+] [potassium oleate],toxicity to nematodes,Meloidognye hapla,relatively nontoxic
glycol pelargonate,concentration producing reduced galling of plants,M. javanica,6.4 microliters/liter
"COC(=O)CCC(=O)OC [106-65-0, butanedioic acid, dimethyl ester]",Mortality of larvae,"[1]; 0.1%, 24 hours",2
same,toxicity to larvae as judged,[1],non-toxic
same,Mortality of larvae,"[1]; 1.0%, 24 hours",2
same,Mortality of larvae,"[1]; 3.0%, 24 hours",1
same,Mortality of larvae,"[1]; 5.0%, 24 hours",1
same,solubility of preparation,[2]; 0.1% in water,soluble
same,solubility of preparation,[2]; 1.0% in water,just soluble
same,solubility of preparation,[2]; 3.0% in water,not soluble
same,solubility of preparation,[2]; 5.0% in water,not soluble
CCCCCCCCCC(=O)O [decanoic acid],kill of second stage juveniles,Meloidognye hapla,killed all
